Measurements reported in patent US8592403B2, “Diazepine and diazocane compounds as MC4 agonists” (Pfizer Limited, priority 2008, dated 2013).
pEC50, pKi: −log10 of the molar value.

Key:
CYP3A4 = molecular target: T1, CYP3A4 (Homo sapiens, UniProt P08684); assay: High density DDI 3 μM cocktail screen in human liver microsomes, midazolam probe; assay type: in vitro ADME; conditions: human, liver microsomes, probe midazolam, read-out: % inhibition 3A4 @ 3 μM
T1 construct: utilizes human liver microsomes together with isoform-specific clinical drug probes; from tissue; host or cells: human liver microsomes
T1 sequence (P08684 whole entry, canonical isoform): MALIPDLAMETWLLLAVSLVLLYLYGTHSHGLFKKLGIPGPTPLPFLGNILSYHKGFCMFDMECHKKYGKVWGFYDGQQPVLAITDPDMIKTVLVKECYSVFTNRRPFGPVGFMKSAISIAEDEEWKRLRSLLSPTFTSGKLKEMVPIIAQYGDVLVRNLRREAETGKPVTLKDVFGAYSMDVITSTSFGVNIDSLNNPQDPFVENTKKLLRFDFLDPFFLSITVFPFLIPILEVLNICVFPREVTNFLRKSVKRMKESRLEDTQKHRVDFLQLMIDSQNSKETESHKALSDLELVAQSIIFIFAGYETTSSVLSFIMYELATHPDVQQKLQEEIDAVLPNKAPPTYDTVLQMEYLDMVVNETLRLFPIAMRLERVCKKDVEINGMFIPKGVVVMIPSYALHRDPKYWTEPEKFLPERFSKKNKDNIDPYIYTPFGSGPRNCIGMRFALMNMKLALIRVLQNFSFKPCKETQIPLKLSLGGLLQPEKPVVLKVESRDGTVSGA
Description: High Density Drug-Drug Interactions (DDI) 3 μM Cocktail Screen
A drug interaction is a situation in which a substance affects the activity of another drug, i.e. the effects are increased or decreased, or together they produce a new effect that neither produces on its own. Drug interactions may be the result of various processes but a relatively common one is where one drug affects the pharmacokinetics of another by inhibiting the cytochrome P450 that metabolises it. Because of the importance of these phenomena, assessment of the DDI potential for new chemical entities (NCEs) is considered important early on in the drug discovery process.
The DDI cocktail screen in human liver microsomes (HLM) is run in a fully automated fashion and the aim of the screen is to provide a single-point assessment of the DDI potential of new chemical entity (NCE; tested at […]) against the 4 primary cytochrome P450 enzymes, 1A2, 2D6, 2C9 and 3A4.
The substrate cocktail approach for P450 DDI utilizes human liver microsomes together with isoform-specific clinical drug probes and permits the simultaneous measurement of the inhibition of P450 1A2, 2C9, 2D6 & 3A4 activities in a single incubation. This is run in high throughput with simultaneous detection of metabolites by LC-MS/MS. This method has been thoroughly tested and evaluated using standard compounds.
Appearance of the metabolite of each substrate is measured over time in the presence and absence of the NCE (test compound/inhibitor) at a concentration of 3 μM. The compounds are assessed for their inhibitory potential as a percentage value and interpreted using the following scheme.

MC3 receptor (MC3R) = molecular target: T2, MC3 receptor (MC3R) (Homo sapiens, UniProt P41968); assay: Nle4, D-Phe7-α-MSH inhibition at the MC3 receptor (competition binding, SPA, CHO-CRE MC3R membranes)
T2 construct: expressed in transfected cells; host or cells: CHO-CRE MC3R cells (membranes)
T2 sequence (P41968 whole entry): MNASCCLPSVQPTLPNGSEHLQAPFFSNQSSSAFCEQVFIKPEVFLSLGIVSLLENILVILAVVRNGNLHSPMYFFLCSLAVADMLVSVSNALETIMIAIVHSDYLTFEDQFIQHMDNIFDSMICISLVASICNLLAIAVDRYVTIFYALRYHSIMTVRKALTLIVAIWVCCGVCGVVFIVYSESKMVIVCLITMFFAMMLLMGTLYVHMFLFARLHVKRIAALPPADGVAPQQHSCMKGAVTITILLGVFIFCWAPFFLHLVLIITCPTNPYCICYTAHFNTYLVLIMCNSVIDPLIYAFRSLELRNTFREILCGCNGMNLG
Excerpt: Nle4, D-Phe7-α-MSH Inhibition at the MC3 Receptor
(§1) Nle4, D-Phe7-α-MSH is a stable analogue of melanocyte-stimulating hormone (MSH), which is an agonist at the MC3 receptor (MC3R). Compounds can be evaluated for their ability to inhibit Nle4, D-Phe7-α-MSH binding to membranes from cells expressing the MC3R using a competition binding assay versus [^125I] Nle4, D-Phe7-α-MSH.
(§2) Cells expressing the MC3R were subject to homogenisation and the membrane fragment isolated by differential centrifugation. CHO-CRE MC3R cell membranes were coupled to PVT-PEI-WGA SPA Beads type A for 2 hours, spun at 1000 RPM for 5 mins and suspended to a final assay concentration of 800 ug bead/ml (1.2 ug membrane, 40 ug bead per well). Bead/membrane mix was incubated with 0.06 nM [^125I] Nle4, D-Phe7-α-MSH and 11 half-log concentrations of competitor ligand, in duplicate, in a total volume of 50 μl buffer per well (25 mM HEPES, 1 mM MgCl2, 2.5 mM CaCl2, 1% Pluronic F68, 1 complete EDTA protease inhibitor tablet/50 ml pH7). Non-specific binding was determined by the inclusion of 100 nM SHU9119. The reaction was initiated by the addition of bead/membranes and plates were incubated at room temperature for 12 hours (the first hour on a plate shaker), after which the amount of radioactivity present was determined using a Wallac plate counter. Ki values were determined by data analysis using appropriate software.

MC4 receptor = MC4 receptor (Homo sapiens, UniProt P32245); assay: MC4 EC50 functional potency (protocol E of US2005/0176772 / WO 2005/077935); assay type: cell-based
Sequence of MC4 receptor (P32245 whole entry): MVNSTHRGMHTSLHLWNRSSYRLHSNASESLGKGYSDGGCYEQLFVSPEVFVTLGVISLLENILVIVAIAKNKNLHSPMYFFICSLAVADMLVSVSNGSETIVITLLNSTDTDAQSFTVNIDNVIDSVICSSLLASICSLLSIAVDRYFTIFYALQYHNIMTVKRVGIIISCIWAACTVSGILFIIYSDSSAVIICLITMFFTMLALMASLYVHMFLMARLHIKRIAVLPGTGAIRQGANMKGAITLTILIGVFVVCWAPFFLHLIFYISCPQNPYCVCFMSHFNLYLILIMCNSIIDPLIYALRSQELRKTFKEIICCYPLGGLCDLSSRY
Description: The compounds of formula (I) of the present invention have utility as MCR4 agonists in the treatment of various disease states.
MC5 and MC4 EC50 activity was determined as described by assay protocols D and E, respectively, in US2005/0176772 (pages 28-30).

MC4 receptor (MC4R) = molecular target: T3, MC4 receptor (MC4R) (Homo sapiens, UniProt P32245); assay: Nle4, D-Phe7-α-MSH inhibition at the MC4 receptor (competition binding, SPA, CHO-CRE MC4R membranes)
T3 construct: expressed in transfected cells; host or cells: CHO-CRE MC4R cells (membranes)
T3 sequence (P32245 whole entry): as above
Excerpt: Nle4, D-Phe7-α-MSH Inhibition at the MC4 Receptor
as §1, with “MC4” for “MC3”, “(MC4R).” for “(MC3R).”, “MC4R” for “MC3R”
as §2, with “MC4R” for “MC3R”, “min” for “mins”, “a” for “a final assay”, “300” for “800”, “(0.15” for “(1.2”, “15” for “40”

[1] = In vitro metabolism rate determination, human liver microsome (HLM) assay; assay type: in vitro ADME; conditions: human, liver microsomes, read-out: HLM: Clint, app
Excerpt: In Vitro Metabolism Rate Determination (Human Liver Microsome (HLM); Rat Liver Microsome (RLM) Assay)
Many drugs are metabolised by the cytochrome P450 mono-oxygenase system. This enzyme is found in high concentrations in the liver and is bound to the endoplasmic reticulum of the hepatocyte. The enzyme system can be obtained in semi-purified state by the preparation of the hepatic microsomal fractions. Determining a compound's in vitro half-life in such a system provides a useful indicator of metabolic stability.
Methodology for In Vitro Rate Determination Using Hepatic & Supermix Microsomes
The method outlined below is for a total incubation volume of 1.5 ml.
1. The following mixture is prepared in a test tube:
2. Defrost microsomes at room temperature and add sufficient microsomes to give a final concentration of 0.5 nmol cytochrome P450/ml of incubation e.g. for a 1.5 ml incubation, the volume of microsomes to be added is:
3. Add sufficient MilliQ water to give a total incubation volume of 1.425 ml.
6. Add substrate to the incubation. The substrate should be at an initial concentration of 1 μM. The volume of substrate required in the remaining 1.162.5 ml incubation is calculated as follows: […]
8. Pre-incubate the tube containing the incubation mix, also positive control and no cofactor tubes in the thermostatically controlled shaking water bath set at 37° C. for approx 5 min.
9. Add NADP to initiate reaction (75 μl to each 1.162.5 ml incubation mix, 12.5 μl to positive control tube and 5 μl to no substrate tube) and take first time point immediately. The PNA positive control, no cofactor control and no substrate tubes are incubated for the total incubation time.
10. Remove 100 μl aliquots up to 9 different sampling points from 0 to 60 min (usually 0, 3, 5, 10, 15, 20, 30, 45 & 60 min) and terminate reaction. Longer incubation times can be used, but, after 120 min the microsomes deteriorate. The reaction may be terminated by addition of organic solvent, acid or base. At the end of the incubation process the no cofactor and no substrate controls in a similar manner i.e. terminate with the same reagent.
11. Analyse samples (including no cofactor and no substrate control) by a specific assay for the substrate to determine the disappearance kinetics.
Data obtained using the procedure described above can be quantified in terms of the substrates in vitro intrinsic clearance (Clint). Providing that the substrate concentration is below Km, the metabolism should be 1st order giving a log-linear plot of substrate disappearance with time.
The gradient of this line is the first order rate constant (k) for the substrate disappearance and is determined by regression analysis. This rate constant can be converted to the half-life according to the following equation.
Alternatively the rate constant can be converted to an intrinsic clearance (Clint) according to the following equation:— Clint(μl/min/mg)=(k/protein concentration in incubation (mg/ml))*1000

Row | Compound | inhibition at 3 µM (CYP3A4) [%] | pKi (MC3 receptor (MC3R)) | pEC50 (MC4 receptor) | pKi (MC4 receptor (MC4R)) | microsomal CLint at 1 μM [1] [µL/min/mg]
1 | COc1ccc(C2CCCN(C(=O)[C@@H]3CN(c4ccc(C#N)nn4)C[C@H]3c3ccc(F)cc3F)CCN2C(C)=O)cc1 (mixture of isomers) [Example 1, 6-[(3S,4R)-3-{[4-acetyl-5-(4-methoxyphenyl)-1,4-diazocan-1-yl]carbonyl}-4-(2,4-difluorophenyl)pyrrolidin-1-yl]pyridazine-3-carbonitrile] | 63 | 5.53 | 6.80 | 5.68 | 31
2 | CC(=O)N1CCN(C(=O)[C@@H]2CN(c3ccc(C#N)nn3)C[C@H]2c2ccc(F)cc2F)CCCC1c1ccccc1F (mixture of isomers) [Example 2] | 60 | 6.43 | 7.72 | 6.57 | 39
3 | CC(=O)N1CCN(C(=O)[C@@H]2CN(c3cccnn3)C[C@H]2c2ccc(F)cc2F)CCC1c1ccccc1 (mixture of isomers) [Example 3] | 30 | 5.50 | 7.37 | 6.28 | 60
4 | COc1cccc(C2CCCN(C(=O)[C@@H]3CN(c4ccc(C#N)nn4)C[C@H]3c3ccc(F)cc3F)CCN2C(C)=O)c1 (mixture of isomers) [Example 4] | 36.5 | 6.09 | 6.84 | 6.26 | 237
5 | COC(=O)N1CCN(C(=O)[C@@H]2CN(c3ccc(C#N)nn3)C[C@H]2c2ccc(F)cc2F)CCCC1c1ccc(OC)cc1 (mixture of isomers) [Example 48] | 61.5 | 5.58 | 7.07 | 6.23 | 55
6 | COC(=O)N1CCN(C(=O)[C@@H]2CN(c3cccnn3)C[C@H]2c2ccc(F)cc2F)CCC1c1ccccc1 (mixture of isomers) [Example 49] | 42.5 | 5.65 | 7.68 | 6.68 | 86
7 | COC(=O)N1CCN(C(=O)[C@@H]2CN(c3ccc(C#N)nn3)C[C@H]2c2ccc(F)cc2F)CCCC1c1cccc(OC)c1 (mixture of isomers) [Example 50] | 76.5 | 5.79 | 7.13 | 6.42 | 266
8 | CC1(C(=O)N2CCN(C(=O)[C@@H]3CN(C(C)(C)C)C[C@H]3c3ccc(F)cc3F)CCC[C@H]2c2ccc(Cl)cc2)CC1 [Example 60, 1-{[(3S,4R)-1-tert-butyl-4-(2,4-difluorophenyl)pyrrolidin-3-yl]carbonyl}-5S-(4-chlorophenyl)-4-(1-methylcyclopropylcarbonyl)-1,4-diazocane] | 44.9 | – | 8.32 | 7.04 | 31.1
9 | COc1ccc([C@@H]2CN(C(C)(C)C)C[C@H]2C(=O)N2CCC[C@@H](c3ccc(Cl)cc3)N(C(=O)C3CC(F)(F)C3)CC2)c(F)c1 [Example 62] | 0 | – | 7.74 | 5.44 | –

Second part, the molecule after the results:

Row | inhibition at 3 µM (CYP3A4) [%] | pKi (MC3 receptor (MC3R)) | pEC50 (MC4 receptor) | pKi (MC4 receptor (MC4R)) | microsomal CLint at 1 μM [1] [µL/min/mg] | Compound
10 | 56 | 4.71 | 7.06 | 5.86 | 74 | COC(=O)N1CCN(C(=O)[C@@H]2CN(C3CCOCC3)C[C@H]2c2ccc(F)cc2F)CCCC1c1ccccc1 (mixture of isomers) [Example 74]
11 | 73.5 | 6.34 | 7.97 | 7.07 | 8 | COC(=O)N1CCN(C(=O)[C@@H]2CN(c3ccc(C#N)nn3)C[C@H]2c2ccc(F)cc2F)CCCC1c1ccc(Cl)cc1 (mixture of isomers) [Example 75]
12 | 70.5 | 6.20 | 8.27 | 7.30 | 19 | COC(=O)N1CCN(C(=O)[C@@H]2CN(c3ccc(=O)n(C)n3)C[C@H]2c2ccc(F)cc2F)CCCC1c1ccc(Cl)cc1 (mixture of isomers) [Example 80]
13 | 32 | 5.76 | 7.70 | 6.91 | 18 | Cn1nc(N2C[C@@H](C(=O)N3CCCC(c4ccc(Cl)cc4)N(S(C)(=O)=O)CC3)[C@H](c3ccc(F)cc3F)C2)ccc1=O (mixture of isomers) [Example 81]
14 | 50 | 5.67 | 6.77 | 6.03 | – | CS(=O)(=O)N1CCN(C(=O)[C@@H]2CN(c3ccc(C#N)nn3)C[C@H]2c2ccc(C#N)cc2)CCCC1c1ccc(Cl)cc1 (mixture of isomers) [Example 87]
